We go through 16 molecules from patent EP4653435A1, “PRMT5-MTA INHIBITOR” (Suzhou Puhe Biopharma Co., Ltd., priority 2023, dated 2024).

In assay [1] the test system is HCT116-MTAPdel. The assay can be described thus: 2D antiproliferative assay (CTG cell viability), MTAP-deficient cells. Format: cell-based. The conditions noted are these: for IC50: Homo sapiens; for HCT116WT IMTAPdel selectivity: ratio IC50 wild type / MTAPdel, antiproliferation. The method, then: (§1) HCT116 wild-type and MTAP-deficient cells were cultured in McCoy's 5A medium containing 10% FBS and 1% penicillin-streptomycin, and cultured in a 37°C, 5% CO2 constant temperature incubator. 40 µL of cell suspension was introduced into each well of a 384-well microplate. 40 nL of different concentrations of test compounds were added to each well using an Echo, before culturing in a 37°C, 5% CO2 constant temperature incubator for 7-10 days. 40 µL of CTG solution (Promega, Cat No. G7573) was added to each well and incubated in a 37°C, 5% CO2 constant temperature incubator for 30 minutes in the dark.

Assay [2] has as its system HCT116-MTAPwt. The assay can be described thus: 2D antiproliferative assay (CTG cell viability), wild-type cells. As to conditions: Homo sapiens, HCT-116, 7-10 days. Format: cell-based. The protocol: as §1
Setting [3] is: HCT-116, HCT116 MTAP-deficient cells, 7-10 days, CTG, read-out: HCT116-MTAPdel/IC50/nM.

Read-outs that look alike come from different tables or passages of the source. Where only a bound is given, the exact number is not on record here.

Regarding `C[C@H]1CC[C@H](c2ccc3sc(CN(C)C)nc3c2)N(C(=O)C(=O)Nc2cnc(N)c3c2cnn3C)C1` (racemic) [Compound P14], the figures for the IC50 in assay [1] (setting [3]) and in assay [2] were 11 nM and 295 nM, respectively. For the same molecule, the “HCT116WT IMTAPdel selectivity” value in assay [1] is 27.
For the molecule `[2H]C([2H])([2H])n1ncc2c(NC(=O)C(=O)N(C)[C@@H]3COCc4nc(C(F)(F)F)ccc43)cnc(N)c21` [Compound P26], the values for the IC50 in assay [1] (setting [3]) and in assay [2] were 12 nM and 4550 nM, respectively. In assay [1], the “HCT116WT IMTAPdel selectivity” value is 380.
On to `Cn1ncc2c(NC(=O)C(=O)NC3COc4cc(C(F)(F)F)ccc43)cnc(N)c21` (stereo not shown) [Compound A1, reference compound], for which the IC50 in assay [1] (setting [3]) and in assay [2] was > 10000 nM throughout.
In the case of `C[C@@H]1COC[C@H](c2ccc(C(F)(F)F)cn2)N1C(=O)C(=O)Nc1cnc(N)c2c1cnn2C` [Compound P11b], the IC50 in assay [1] (setting [3]) stood at 8 nM; in assay [2] it was 427 nM. For the same molecule, the “HCT116WT IMTAPdel selectivity” value in assay [1] is given as 53.
Regarding `CN(C(=O)C(=O)Nc1cnc(N)c2c1cnn2C)[C@H]1COCc2nc(C(F)(F)F)ccc21` [Compound P9b], the results for the IC50 in assay [1] (setting [3]) and in assay [2] were 883 nM and > 10000 nM, respectively. In assay [1], the “HCT116WT IMTAPdel selectivity” value is reported as >11.
Taken in the same sequence, the figures for `C[C@H]1COC[C@@H](c2ccc(-c3cncc(Cl)c3)cn2)N1C(=O)C(=O)Nc1cnc(N)c2c1cnn2C` [Compound P13a] were 616 nM, > 10000 nM and >16.
With `CC(=O)N1CCC(Nc2cc(C(=O)NC[C@H](O)CN3CCc4ccccc4C3)ncn2)CC1` [GSK3326595, reference compound], the IC50 in assay [1] (setting [3]) was 17 nM; in assay [2], 72 nM. In addition, the “HCT116WT IMTAPdel selectivity” value in assay [1] is given as 4.
Taken in the same sequence, the figures for `CCN(C(=O)C(=O)Nc1cnc(N)c2c1cnn2C)[C@H]1COc2cc(C(F)(F)F)ccc21` [Compound P19b] were 261 nM, 3860 nM and 15.
As to `CSc1ccc2c(c1)OCC2N(C)C(=O)C(=O)Nc1cnc(N)c2c1cnn2C` (stereo not shown) [Compound P31], the IC50 is 21 nM in assay [1] (setting [3]) and 3580 nM in assay [2]. For the same molecule, in assay [1], the “HCT116WT IMTAPdel selectivity” value came out at 171.
Turning to `CN(C(=O)C(=O)Nc1cnc(N)c2c1cnn2C)[C@H]1COc2cc(-c3cncc(Cl)c3)ccc21` [Compound H1b], the IC50 in assay [1] (setting [3]) is 300 nM; in assay [2] it was > 10000 nM. In assay [1], the “HCT116WT IMTAPdel selectivity” value is on record as >33.
In the case of `C[C@H]1COC[C@@H](c2ccc(C(F)(F)F)cn2)N1C(=O)C(=O)Nc1cnc(N)c2c1cnn2C` [Compound P11a], the IC50 in assay [1] (setting [3]) was 1910 nM; in assay [2], > 10000 nM. In addition, the “HCT116WT IMTAPdel selectivity” value in assay [1] is reported as >5.
With `Cc1nc2cc(C3CCC(C)CN3C(=O)C(=O)Nc3cnc(N)c4c3cnn4C)ccc2s1` (racemic) [Compound P10], the IC50 in assay [1] (setting [3]) came to 10 nM; in assay [2], 800 nM. The “HCT116WT IMTAPdel selectivity” value in assay [1] was 80.
Consider `C[C@H]1COC[C@@H](c2ccc(OC(F)(F)F)cc2)N1C(=O)C(=O)Nc1cnc(N)c2c1cnn2C` (racemic) [Compound P12], for which the IC50 was determined as 5 nM in assay [1] (setting [3]) and 607 nM in assay [2]. For the same molecule, the “HCT116WT IMTAPdel selectivity” value in assay [1] amounted to 121.
Turning to `C[C@H]1CC[C@H](c2ccc3sc(C(F)(F)F)nc3c2)N(C(=O)C(=O)Nc2cnc(N)c3c2cnn3C)C1` (racemic) [Compound P16], the IC50 in assay [1] (setting [3]) was found to be 11 nM; in assay [2], 891 nM. For the same molecule, the “HCT116WT IMTAPdel selectivity” value in assay [1] was determined as 81.
Taken in the same sequence, the figures for `C[C@H]1CC[C@H](c2ccc3sc(-c4cccnc4)nc3c2)N(C(=O)C(=O)Nc2cnc(N)c3c2cnn3C)C1` (racemic) [Compound P17] were 8 nM, 606 nM and 76.
On to `C[C@@H]1CC[C@@H](c2ccc3scnc3c2)N(C(=O)C(=O)Nc2cnc(N)c3c2cnn3C)C1` [Compound P3a], for which the IC50 is 666 nM in assay [1] (HCT-116, read-out: HCT116-MTAPdel/IC50/nM) and > 10000 nM in assay [2].
